Consider six compounds from patent publication US20220389003A1, “4-SUBSTITUTED INDOLE AND INDAZOLE SULFONAMIDO DERIVATIVES AS PARG INHIBITORS” (IDEAYA BIOSCIENCES, INC., priority 2019, published 2022).

Experiment [1] deals with T1, PARG (Homo sapiens, UniProt Q86W56). In words: Inhibition of PARG enzymatic assay (TR-FRET enzymatic IC50 assay). The experiment is classed as biochemical. On the set-up: purchased Peak Proteins. The settings on record: hPARG 250 pM, biotinylated-PARylated PARP substrate 30 nM. The method in brief:
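Compound preincubated 1 h with 250 pM His-tagged hPARG, then 30 nM biotinylated PARylated hPARP1 substrate added for 10 min; buffer 50 mM Tris-HCl pH 7.4, EDTA/EGTA, 1 mM DTT, 23° C. TR-FRET read after 1 h with anti-His ULight antibody and streptavidin-europium; inhibition scaled between DMSO and no-enzyme controls.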

The subject of experiment [2] is HCC1806-XRCC1 KD (knock down) cells. Nature of the experiment: Cellular viability assay (Cell Titer-Glo). Type of experiment: cell-based. The settings on record: 96 h, HCC1806-shXRCC1 cells, 4 days of incubation, read-out: PARGi cell viability. The method in brief: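 XRCC1-knockdown HCC1806 cells seeded 24 h before dosing; 9-point 1:3 dilution from 30 μM top concentration, duplicates, 4-day incubation. Viability by CellTiter-Glo luminescence, normalized to DMSO wells as % of control; curves fit with 4-parameter inhibition model.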
In general terms: ATP-based viability assays read luminescence as a measure of living cells.

Experiment [3] addresses T1, PARG. Nature of the experiment: Inhibition of PARG cellular assay (PAR foci in HeLa cells after MMS). Type of experiment: cell-based. Particulars: compound 1 h then MMS 1 h. On the set-up: endogenous in cells; host or cells: HeLa. The method in brief: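 HeLa cells pretreated with compound for 1 h, then given MMS for a further 1 h, fixed and immunostained for PAR polymer. High-content imaging quantified nuclear PAR foci intensity (PAR Foci IC50) and percent cells with foci signal >1.3 (PAR % positive IC50).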

T1 sequence (Q86W56 whole entry): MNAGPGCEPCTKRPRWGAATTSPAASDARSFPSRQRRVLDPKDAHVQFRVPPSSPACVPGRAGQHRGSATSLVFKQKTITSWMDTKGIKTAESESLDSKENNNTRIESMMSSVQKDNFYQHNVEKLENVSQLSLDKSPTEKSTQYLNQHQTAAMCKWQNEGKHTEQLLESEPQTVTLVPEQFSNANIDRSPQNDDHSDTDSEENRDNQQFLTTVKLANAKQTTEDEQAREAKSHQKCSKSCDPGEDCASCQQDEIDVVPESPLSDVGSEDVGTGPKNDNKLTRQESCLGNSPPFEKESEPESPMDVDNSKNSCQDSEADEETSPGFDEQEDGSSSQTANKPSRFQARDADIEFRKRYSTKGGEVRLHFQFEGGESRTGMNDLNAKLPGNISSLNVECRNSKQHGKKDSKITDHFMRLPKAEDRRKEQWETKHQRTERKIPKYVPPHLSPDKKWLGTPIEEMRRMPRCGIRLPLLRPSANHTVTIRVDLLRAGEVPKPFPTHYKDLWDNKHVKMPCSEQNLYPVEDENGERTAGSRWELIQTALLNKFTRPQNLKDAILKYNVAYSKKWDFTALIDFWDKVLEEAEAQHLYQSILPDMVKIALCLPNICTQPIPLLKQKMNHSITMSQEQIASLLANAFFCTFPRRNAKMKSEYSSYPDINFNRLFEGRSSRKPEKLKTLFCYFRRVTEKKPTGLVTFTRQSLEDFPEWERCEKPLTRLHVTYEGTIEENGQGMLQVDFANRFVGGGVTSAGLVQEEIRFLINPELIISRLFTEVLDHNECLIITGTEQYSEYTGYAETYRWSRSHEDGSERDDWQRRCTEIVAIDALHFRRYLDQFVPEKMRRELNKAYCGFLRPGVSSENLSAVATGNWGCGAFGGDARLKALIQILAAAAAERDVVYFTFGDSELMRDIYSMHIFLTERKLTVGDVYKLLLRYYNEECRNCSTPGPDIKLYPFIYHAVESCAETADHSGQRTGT

`CCC(C)C(=O)N1CCN(c2cc(S(=O)(=O)NC3(C#N)CC3)cc3c2cnn3-c2nnc(C(F)F)s2)C[C@H]1C` (stereo partly drawn) [Example 110, 1-[({4-[(3R)-3-methyl-4-(2-methylbutanoyl)piperazinyl]-1-[5-(difluoromethyl)-(1,3,4-thiadiazol-2-yl)]-1H-indazol-6-yl}sulfonyl)amino]cyclopropane carbonitrile]: the values for the IC50 (against PARG [1]; in experiment [2]; against PARG [3]) were not above 0.1 µM, less than 1 µM and 0.1 to 0.3 µM, respectively.
In the case of `CC1(C(=O)N2CCN(c3cc(S(=O)(=O)NC4(C#N)CC4)cc4c3cnn4-c3nnc(C(F)F)s3)CC2)CC1` [Example 111, 1-{[(1-[5-(difluoromethyl)(1,3,4-thiadiazol-2-yl)]-4-{4-[(methylcyclopropyl)carbonyl]piperazinyl}-1H-indazol-6-yl)sulfonyl]amino}cyclopropanecarbonitrile], the IC50 on PARG [1] is not above 0.1 µM; in experiment [2], less than 1 µM; against PARG [3], not above 0.1 µM.
`CC1(C(=O)N2CCN(c3cc(S(=O)(=O)NC4(C#N)CC4)cc4c3cnn4-c3nnc(C(F)F)s3)CC2)CCC1` [Example 112, 1-{[(1-[5-(difluoromethyl)(1,3,4-thiadiazol-2-yl)]-4-{4-[(methylcyclobutyl)carbonyl]piperazinyl}-1H-indazol-6-yl)sulfonyl]amino}cyclopropanecarbonitrile]: the IC50 was not above 0.1 µM against PARG [1], less than 1 µM in experiment [2] and not above 0.1 µM against PARG [3].
With `CCC(C)C(=O)N1CCN(c2cc(S(=O)(=O)NC3(C#N)CC3)cc3c2cnn3-c2nnc(C(F)F)s2)CC1` (stereo not drawn) [Example 113, 1-[({1-[5-(difluoromethyl)(1,3,4-thiadiazol-2-yl)]-4-[4-(2-methylbutanoyl)piperazinyl]-1H-indazol-6-yl}sulfonyl)amino]cyclopropanecarbonitrile], the IC50 on PARG [1] is not above 0.1 µM; in experiment [2], less than 1 µM; at PARG [3], not above 0.1 µM.
Regarding `N#CC1(NS(=O)(=O)c2cc(N3CCC4(CC3)COC4)c3c(Cl)nn(-c4nnc(C(F)F)s4)c3c2)CC1` [Example 114, 1-[({1-[5-(difluoromethyl)(1,3,4-thiadiazol-2-yl)]-3-chloro-4-(2-oxa-7-azaspiro[3.5]non-7-yl)-1H-indazol-6-yl}sulfonyl)amino]cyclopropanecarbonitrile], the values for the IC50 (against PARG [1]; in experiment [2]; against PARG [3]) were 1 to 10 µM, 10 to 20 µM and 0.3 to 1 µM, respectively.
For `CN(C)C(=O)N1CCN(c2cc(S(=O)(=O)NC3(C#N)CC3)cc3c2c(Cl)nn3-c2nnc(C(F)F)s2)CC1` [Example 115, [4-(1-[5-(difluoromethyl)(1,3,4-thiadiazol-2-yl)]-3-chloro-6-{[(cyanocyclopropyl)-amino]sulfonyl}(1H-indazol-4-yl))piperazinyl]-N,N-dimethylcarboxamide], in that order: 0.3 to 1 µM, 10 to 20 µM and 0.3 to 1 µM.
